Where two headings read alike, the source gives them in different places.
Tests used:
[1] = test system: Ebola minigenome; test: microbe, parasite or virus in culture; assay type: cell-based; settings: Zaire ebolavirus, HEp-2, 48 h, read-out: EBOV EC50, HEp-2 cells, Ebola minigenome, 48 hours
[2] = test system: Human rhinovirus 1B; test: Rhinovirus antiviral assay (HRV1B); assay type: cell-based; settings: Rhinovirus A, 96 h
[3] = test system: human β-coronavirus strain OC43; test: Coronavirus antiviral assay (OC43); assay type: cell-based; settings: Betacoronavirus 1, OC43, 120 h; HeLa or MRC-5 cells, five days, CellTiter-Glo; read-out: OC43CoV EC50
Procedure: (§1) The human β-coronavirus strain OC43 was purchased from ATCC (Manassas, Va.; item numbers VR-1558 and VR-740, respectively). 24 hours prior to dosing, HeLa human cervix epithelial cells (ATCC, CCL-2) or MRC-5 human lung fibroblast (ATCC, CCL-171) were plated in 96 well plates at a density of 1.5×10^5/ml in DMEM medium supplemented with 10% fetal bovine serum, 1% HEPES buffer, 1% Penicillin/Streptomycin and 1% non-essential amino acids (all Mediatech, Manassas, Va.). At the day of infection, serially diluted compounds were added to cells and incubated for 4 hours. After the end of the 4 hour pre-incubation period, cells were infected with either coronavirus strain OC43 or 229E. The virus inoculum was selected to cause 80-90% cytopathic effect. Infected cells were incubated for five days at 37° C., 5% CO2. To develop the assay, 100 μl media was replaced with 100 μl CellTiter-Glo® reagent (Promega, Madison, Wis.), and incubated for 10 min at room temperature. Luminescence was measured on a Victor X3 multi-label plate reader. Potential compound cytotoxicity was determined using uninfected parallel cultures.

[4] = Cytotoxicity in the coronavirus assay, uninfected parallel cultures; assay type: cell-based; settings: human, read-out: OC43CoV CC50
Procedure: as §1

[5] = test system: Dengue virus type 2 NG-C or Dengue virus type 4 H241; test: Dengue antiviral assay (DENV); assay type: cell-based; settings: Dengue virus, Huh7.5, 144 h, Huh-7.5 cells, five to six days, CellTiter-Glo
Procedure: The Dengue virus type 2 strain New Guniea C (NG-C) and the Dengue virus type 4 strain H241 were purchased from ATCC (Manassas, Va.; item numbers VR-1584 and VR-1490, respectively). 24 hours prior to dosing, Huh-7.5 cells were plated in 96 well plates at a density of 1.5×10^5/ml in DMEM medium supplemented with 10% fetal bovine serum, 1% HEPES buffer, 1% Penicillin/Streptomycin and 1% non-essential amino acids (all Mediatech, Manassas, Va.). At the day of infection, serially diluted compounds were added to cells and incubated for 4 hours. After the end of the 4 hour pre-incubation period, cells were infected with either Dengue virus type 2 NG-C or Dengue virus type 4 H241. The virus inoculum was selected to cause 80-90% cytopathic effect in five to six days. Infected cells were incubated for five (NG-C) to six (H241) days at 37° C., 5% CO2. To develop the assay, 100 μl media was replaced with 100 μl CellTiter-Glo® reagent (Promega, Madison, Wis.), and incubated for 10 min at room temperature. Luminescence was measured on a Victor X3 multi-label plate reader. Potential compound cytotoxicity was determined using uninfected parallel cultures.

[6] = test system: RSV replicon; test: microbe, parasite or virus in culture; assay type: cell-based; settings: human respiratory syncytial virus, 168 h, read-out: RSV EC50, HeLa-derived RSV replicon cells, 7 days, luciferase
[7] = in vitro; settings: human
[8] = Toxicity (CC50) in the HRV1B assay; settings: human
[9] = Cell viability (CC50) in the RSV replicon assay; settings: human, HeLa-derived cells containing the stable RSV replicon, CellTiter-Glo
[10] = Cytotoxicity in the DENV assay, uninfected parallel cultures; settings: human
[11] = test system: Huh-7.5 cells; test: as above; settings: read-out: DENV CC50; uninfected Huh-7.5 parallel cultures
[12] = in vitro; settings: human; remark: listed apart in the source

| Compound | EC50 [1] | EC50 ([2]; read-out: HRV 1B EC50, HeLa-OHIO cells, 4 d, CellTiter-Glo) | EC50 [3] | CC50 at 5 days [4] | EC50 [5] | EC50 [6] | CC50 [7] | CC50 at 4 d [8] | CC50 at 7 days [9] | CC50 ([10]; DENV CC50, uninfected Huh-7.5 parallel cultures) | CC50 [11] | EC50 ([2]; HeLa-OHIO cells, 4 d, CellTiter-Glo, read-out: HRV 1B EC50) | CC50 at 4 d [12] | CC50 [10] |
| --- | --- | --- | --- | --- | --- | --- | --- | --- | --- | --- | --- | --- | --- | --- |
| CC(C)CCOC(=O)C[C@H](NP(=O)(OC[C@@]1(F)O[C@@](C#N)(c2ccc3c(N)ncnn23)[C@H](O)[C@@H]1O)Oc1ccccc1)C(=O)OCCC(C)C (stereo partly drawn) [Compound 7, Diisopentyl ((((2S,3S,4R,5R)-5-(4-aminopyrrolo[2,1-f][1,2,4]triazin-7-yl)-5-cyano-2-fluoro-3,4-dihydroxytetrahydrofuran-2-yl)methoxy)(phenoxy)phosphoryl)-L-aspartate] | 0.2 µM | 0.15 µM | 0.056 µM | 13 µM | 0.0014 µM | 0.03 µM | 14 µM | 12.4 µM | 21 µM | 15 µM | 21 µM | – | – | – |
| CCC(CC)COC(=O)[C@@H](C)NP(=O)(OC[C@H]1O[C@@](C#N)(c2ccc3c(N)ncnn23)[C@H](O)[C@@H]1O)Oc1ccccc1 (some centres unmarked) [Compound C1, reference compound] | 0.8 µM | – | 0.065 µM | 69 µM | 0.13 µM | 0.02 µM | 51 µM | – | – | – | – | 0.12 µM | 6 µM | 22 µM |
